Source: patent publication US9512107B2, “Therapeutically active compositions and their methods of use” (Agios Pharmaceuticals, Inc., priority 2012, dated 2016)
Numbering of substitutions follows the chain as printed.

Experiments:
[1] = molecular target: T1, IDH2 R172K (Homo sapiens, UniProt P48735, R172K); test: IDH2 R172K enzymatic assay (NADPH cofactor depletion, diaphorase/resazurin readout); assay type: biochemical; conditions: read-out: Enz R172K
T1 sequence (P48735 40-452 R172K): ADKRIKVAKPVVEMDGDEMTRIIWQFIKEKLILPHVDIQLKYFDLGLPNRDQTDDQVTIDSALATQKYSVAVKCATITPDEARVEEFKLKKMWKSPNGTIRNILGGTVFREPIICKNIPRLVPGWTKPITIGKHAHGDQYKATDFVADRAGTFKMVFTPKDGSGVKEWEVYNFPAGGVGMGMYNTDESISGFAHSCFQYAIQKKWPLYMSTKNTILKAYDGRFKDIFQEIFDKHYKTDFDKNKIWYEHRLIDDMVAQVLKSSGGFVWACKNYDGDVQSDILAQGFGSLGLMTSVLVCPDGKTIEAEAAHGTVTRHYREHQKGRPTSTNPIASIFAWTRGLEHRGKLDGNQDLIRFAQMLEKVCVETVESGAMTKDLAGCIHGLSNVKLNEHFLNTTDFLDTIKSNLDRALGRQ
Summary of the method: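 Test compounds are incubated with the mutant enzyme for one hour at ambient temperature. A substrate mix of 50 μM NADPH plus 6.3 mM α-KG initiates turnover, which proceeds for one hour. Diaphorase and resazurin then halt the reaction by depleting the cofactor and convert the remaining NADPH into a fluorescent signal.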

[2] = molecular target: T2, IDH2 R140Q (Homo sapiens, UniProt P48735, R140Q); test: IDH2 R140Q enzymatic assay (cofactor depletion, similar format); assay type: biochemical; conditions: read-out: Enz R140Q
T2 sequence (P48735 40-452 R140Q): T1 sequence (P48735 40-452 R172K) with R101Q, K133R

[3] = tested on: U87MG pLVX-IDH2 R140Q-neo cells; test: U87MG pLVX-IDH2 R140Q-neo cell based assay, 2-HG in media by LC-MS at 48 hours; conditions: Homo sapiens, U-87 MG
Summary of the method: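 U87MG cells stably expressing IDH2 R140Q were seeded overnight, then exposed to compound at 0.2% final DMSO at 37 °C, 5% CO2. 2-HG in the medium was quantified by LC-MS at 48 h. Growth inhibition was read by CellTiter-Glo luminescence at 72 h.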

| IC50 [1] [nM] | IC50 [2] [nM] | IC50 [3] [nM] | Compound |
| --- | --- | --- | --- |
| 100 to 1000 | 100 to 1000 | < 100 | CC(C)Nc1nc(Nc2ccnc(C(F)(F)F)c2)nc(-c2cccc(S(C)(=O)=O)c2)n1 [Compound 657, N-Isopropyl-6-(3-methanesulfonyl-phenyl)-N′-(2-trifluoromethyl-pyridin-4-yl)-[1,3,5]triazine-2,4-diamine] |
| 100 to 1000 | 100 to 1000 | 100 to 1000 | CC(C)Nc1nc(Nc2ccccc2)nc(-c2cccc(S(C)(=O)=O)c2)n1 [Compound 151] |
| < 100 | 100 to 1000 | < 100 | CC(C)Nc1nc(Nc2ccnc(C(F)(F)F)c2)nc(-c2cccc(CO)c2)n1 [Compound 639, {3-[4-Isopropylamino-6-(2-trifluoromethyl-pyridin-4-ylamino)-[1,3,5]triazin-2-yl]-phenyl}-methanol] |
| 1000 to 10000 | 100 to 1000 | 100 to 1000 | CC(C)Nc1nc(Nc2ccnc(C(F)(F)F)c2)nc(-c2cccc(=O)[nH]2)n1 [Compound 650, 6-(4-(isopropylamino)-6-((2-(trifluoromethyl)pyridin-4-yl)amino)-1,3,5-triazin-2-yl)pyridin-2(1H)-one] |
| > 10000 | 100 to 1000 | 100 to 1000 | COC(=O)Nc1cccc(-c2nc(Nc3ccnc(C(F)(F)F)c3)nc(NC(C)C)n2)n1 [Compound 679, Methyl(6-(4-(isopropylamino)-6-((2-(trifluoromethyl)pyridin-4-yl)amino)-1,3,5-triazin-2-yl)pyridin-2-yl)carbamate] |
| < 100 | 100 to 1000 | < 100 | CC(C)Nc1nc(Nc2ccnc(C3(C#N)CC3)c2)nc(-c2cccc(C(F)(F)F)n2)n1 [Compound 669, 1-{4-[4-Isopropylamino-6-(6-trifluoromethyl-pyridin-2-yl)-[1,3,5]triazin-2-ylamino]-pyridin-2-yl}-cyclopropanecarbonitrile] |
| < 100 | 100 to 1000 | < 100 | CC(C)Nc1nc(Nc2cc(F)cc(S(C)(=O)=O)c2)nc(-c2cccc(C(C)(F)F)n2)n1 [Compound 613, 6-(6-(1,1-difluoroethyl)pyridin-2-yl)-N2-(3-fluoro-5-(methylsulfonyl)phenyl)-N4-isopropyl-1,3,5-triazine-2,4-diamine] |

The next lines start with the molecule.

| Compound | IC50 [1] [nM] | IC50 [2] [nM] | IC50 [3] [nM] |
| --- | --- | --- | --- |
| CC(C)(O)CNc1nc(Nc2cc(F)cc(F)c2)nc(-c2cccc(C(C)(F)F)n2)n1 [Compound 560, 1-[4-[6-(1,1-Difluoro-ethyl)-pyridin-2-yl]-6-(3,5-difluoro-phenylamino)-[1,3,5]triazin-2-ylamino]-2-methyl-propan-2-ol] | < 100 | 100 to 1000 | < 100 |
| Cc1cc(-c2nc(Nc3cccc(F)c3)nc(NC(C)C)n2)no1 [Compound 472, N-(3-Fluoro-phenyl)-N′-isopropyl-6-(5-methyl-isoxazol-3-yl)-[1,3,5]triazine-2,4-diamine] | 100 to 1000 | < 100 | < 100 |
| CC(C)Nc1nc(Nc2cc(F)cc(F)c2)nc(-c2nc(O)ccc2F)n1 [Compound 469, 6-[4-(3,5-Difluoro-phenylamino)-6-isopropylamino-[1,3,5]triazin-2-yl]-5-fluoro-pyridin-2-ol] | < 100 | < 100 | < 100 |
| CC(C)Nc1nc(Nc2cccc(S(=O)(=O)NC(C)(C)C)c2)nc(-c2ccccc2)n1 [Compound 342, N-tert-butyl-3-(4-(isopropylamino)-6-phenyl-1,3,5-triazin-2-ylamino)benzenesulfonamide] | 1000 to 10000 | 100 to 1000 | 1000 to 10000 |
| c1ccc(-c2nc(NCC3CC3)nc(Nc3ccncc3)n2)cc1 [Compound 216, N^2-(cyclopropylmethyl)-6-phenyl-N^4-(pyridin-4-yl)-1,3,5-triazine-2,4-diamine] | 100 to 1000 | < 100 | 100 to 1000 |
| CC(C)Nc1nc(Nc2ccccc2)nc(-c2ccn[nH]2)n1 [Compound 148] | 1000 to 10000 | 100 to 1000 | 100 to 1000 |
| CC(C)Nc1nc(Nc2cccc(S(=O)(=O)N(C)C)c2)nc(-c2ccccc2)n1 [Compound 177, 3-(4-(isopropylamino)-6-phenyl-1,3,5-triazin-2-ylamino)-N,N-dimethylbenzenesulfonamide] | 100 to 1000 | < 100 | < 100 |
| CC(C)Nc1nc(Nc2cccc(S(=O)(=O)NC3CC3)c2)nc(-c2ccccc2)n1 [Compound 341, N-cyclopropyl-3-(4-(isopropylamino)-6-phenyl-1,3,5-triazin-2-ylamino)benzenesulfonamide] | 100 to 1000 | < 100 | < 100 |
| CS(=O)(=O)c1cc(Cl)cc(Nc2nc(NCC3CC3)nc(-c3cccc(C(F)(F)F)n3)n2)c1 [Compound 599, N2-(3-chloro-5-(methylsulfonyl)phenyl)-N4-(cyclopropylmethyl)-6-(6-(trifluoromethyl)pyridin-2-yl)-1,3,5-triazine-2,4-diamine] | < 100 | 100 to 1000 | < 100 |
| CC(C)OCC(=O)Nc1nc(Nc2ccccc2)nc(-c2ccccc2)n1 [Compound 244, 2-isopropoxy-N-(4-phenyl-6-(phenylamino)-1,3,5-triazin-2-yl)acetamide] | 100 to 1000 | 100 to 1000 | 1000 to 10000 |
| CCCCNc1nc(Nc2ccncc2)nc(-c2ccccc2)n1 [Compound 211, N^2-butyl-6-phenyl-N^4-(pyridin-4-yl)-1,3,5-triazine-2,4-diamine] | 100 to 1000 | < 100 | 100 to 1000 |
| CC(F)(F)c1cccc(-c2nc(NCC3CC3)nc(Nc3ccnc(C4(C#N)CC4)c3)n2)n1 [Compound 619, 1-(4-((4-((cyclopropylmethyl)amino)-6-(6-(1,1-difluoroethyl)pyridin-2-yl)-1,3,5-triazin-2-yl)amino)pyridin-2-yl)cyclopropanecarbonitrile] | < 100 | 100 to 1000 | < 100 |
| Fc1ccc(Nc2nc(NC3C4COCC43)nc(-c3cccc(Cl)n3)n2)cn1 (stereo not drawn) [Compound 512, 6-(6-Chloro-pyridin-2-yl)-N-(6-fluoro-pyridin-3-yl)-N′-(3-oxa-bicyclo[3.1.0]hex-6-yl)-[1,3,5]triazine-2,4-diamine] | 100 to 1000 | 100 to 1000 | < 100 |
| CCNc1cc(Nc2nc(NC(C)C)nc(-c3ccccc3)n2)ccn1 [Compound 224, N^2-(2-(ethylamino)pyridin-4-yl)-N^4-isopropyl-6-phenyl-1,3,5-triazine-2,4-diamine] | 100 to 1000 | < 100 | 100 to 1000 |
| CC(F)(F)c1cccc(-c2nc(NCC3CC3)nc(Nc3ccnc(C(C)(C)C#N)c3)n2)n1 [Compound 618, (4-((4-((cyclopropylmethyl)amino)-6-(6-(1,1-difluoroethyl)pyridin-2-yl)-1,3,5-triazin-2-yl)amino)pyridin-2-yl)-2-methylpropanenitrile] | < 100 | 100 to 1000 | < 100 |
| CC(C)Nc1nc(Nc2cc(F)cc(F)c2)nc(-c2ncccc2F)n1 [Compound 459, N-(3,5-Difluoro-phenyl)-6-(3-fluoro-pyridin-2-yl)-N′-isopropyl-[1,3,5]triazine-2,4-diamine] | < 100 | < 100 | < 100 |
